Assay results taken from US6635628B2, “Methods of administering camptothecin compounds for the treatment of cancer with reduced side effects” (The George Washington University, priority 1998, dated 2003).

Columns and labels:
[1] = format: physicochemical; details: 1,000-molecular weight cut-off membrane
From the text: Monomers were separated from micellar aggregates by ultrafiltration through a 1000-molecular weight cut-off membrane (YM1) as described in Materials and Methods. Values are the monomeric forms of the indicated metabolites, expressed as a percentage (%) of the concentration of the initial solution before ultrafiltration. Comparison between TCA and control was estimated by Mann-Whitney test. […] Abbreviations used: CPT lactone (CPT lact.); CPT carboxylate (CPT carb.); SN-38 lactone (SN lact.); and SN-38 carboxylate (SN carb.).

topoisomerase I = molecular target: T1, topoisomerase I (Homo sapiens, UniProt P11387); details: cited from earlier work
T1 sequence (P11387 1-765): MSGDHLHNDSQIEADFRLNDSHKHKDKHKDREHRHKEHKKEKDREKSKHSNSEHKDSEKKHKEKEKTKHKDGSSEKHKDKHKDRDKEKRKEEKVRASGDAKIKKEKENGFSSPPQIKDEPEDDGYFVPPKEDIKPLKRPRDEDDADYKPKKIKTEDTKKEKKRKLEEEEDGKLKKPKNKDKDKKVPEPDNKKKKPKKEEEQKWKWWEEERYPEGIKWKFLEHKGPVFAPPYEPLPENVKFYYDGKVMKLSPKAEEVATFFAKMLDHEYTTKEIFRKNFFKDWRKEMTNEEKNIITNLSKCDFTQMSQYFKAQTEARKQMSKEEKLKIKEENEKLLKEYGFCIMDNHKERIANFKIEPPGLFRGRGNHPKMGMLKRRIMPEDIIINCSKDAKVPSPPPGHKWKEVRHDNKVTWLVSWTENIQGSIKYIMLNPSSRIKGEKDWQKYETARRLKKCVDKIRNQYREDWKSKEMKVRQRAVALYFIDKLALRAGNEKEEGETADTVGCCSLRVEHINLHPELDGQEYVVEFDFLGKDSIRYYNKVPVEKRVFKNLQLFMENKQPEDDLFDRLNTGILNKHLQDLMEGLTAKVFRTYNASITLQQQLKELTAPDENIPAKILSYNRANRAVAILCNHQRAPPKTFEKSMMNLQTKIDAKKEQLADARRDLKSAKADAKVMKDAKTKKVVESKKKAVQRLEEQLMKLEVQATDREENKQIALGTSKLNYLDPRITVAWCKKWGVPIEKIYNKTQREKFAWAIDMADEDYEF

[2] = tested on: intestinal cells from whole small-intestine; experiment: Uptake of 14C-labeled CPT-11 and SN-38 by intestinal cells, regions combined or not distinguished (TCA, pH, bicarbonate effects)
Description: By adding the drugs to Hank's solution containing intestinal cells from whole small-intestine, uptake studies were performed.
Intestinal cells were isolated as previously described (28, 29). Briefly, male hamsters were anesthetized with sodium pentobarbital (Nembutol 70 mg/kg body weight). The entire intestine was removed. The intestinal lumen was washed with 37° C. Hank's solution. Sacs of the ileum (12.5 cm from cecum) and jejunum (remaining small intestine) were rinsed, as well as the intestinal sacs of the anal site of small intestine (12.5 cm from cecum) and oral site (the other small intestine). The sacs were rinsed with oxygenated buffer solution containing sodium citrate (96 mM NaCl, 1.5 mM KCl, 5.6 mM KH2PO4, 27 mM sodium citrate, pH 7.3), and incubated for 10 min in the same buffer at 37° C. The sacs were then emptied, filled with oxygenated buffer solution containing EDTA (140 mM NaCl, 16 mM Na2HPO4, 2 mM EDTA, 0.5 mM dithiothreitol, pH 7.3), incubated for 10 min at 37° C. Then each sac was placed onto a petri dish and gently vortexed for 1 min. The buffer containing intestinal cells was recovered in 50 mL of Hanks' solution, washed twice and adjusted at 10^6 cells/ml in Hanks' medium (cellular stock solution containing 0.5% bovine serum albumin, pH 7.4).
The cellular suspension of 0.95 ml was incubated for 15 min in a 37° C. water bath with stirring. Uptake was started by the addition of 0.05 ml PBS (at pH 3 or 9) containing labeled SN-38 or CPT-11 at 37° C. At various time intervals, 100 μL, sample aliquots were diluted into 3 mL of Hank's medium at 4° C. to stop the uptake. The stop solution containing the cells was filtered through a glass microfiber filter (Glass Fiber Filter Circles G4, Fisherbrand, Pa.) under vacuum (20 psi). The cells were washed once with 5 mL of 0.5% bovine serum albumin-containing Hanks' medium (4° C.) and once with 20 mL of Hanks' solution (4° C.). The filters were placed in a vial containing 4 mL of scintillation liquid (Ultra Gold, Packard, Conn.) and the radioactivity was counted in a β scintillation counter (LS3801, Beckman, Md.).
The effect of the metabolic inhibitor, 2,4 dinitrophenol (1 mM), was studied by adding this agent to the cells 3 min prior to either ^14C-CPT-11 or ^14C-SN-38 (2 μM). The effect of 20 mM of taurocholic acid (TCA) on the uptake of both CPT-11 and SN-38 was investigated following overnight incubation of ^14C-CPT-11 (20 μM) and ^14C-SN-38 (2 μM) in Hank's solution, at pH 7.4 and in the presence and absence of TCA. The effect of 200 μM of DNP-SG or SN-38-Glu was also studied by adding these agents to the cell preparation 7 min prior to either ^14C-CPT-11 (20 μM) and ^14C-SN-38 (2 μM).
The effect of physiologic pH on the initial intestinal uptake rate of CPT-11 and SN-38 was investigated following overnight incubation of ^14C-CPT-11 (20 μM) and ^14C-SN-38 (2 μM) in phosphate buffered saline at pH 6.2, 6.8, 7.4 and 8, respectively.
The initial rate of uptake of CPT-11 or SN-38 was derived from the linear regression analysis of the respective regression line obtained from the plot of the uptake as a function of time. The initial rates of uptake were plotted against the corresponding concentration. The data were fitted by least-squares nonlinear regression analysis (SigmaStat, Jandel Scientific, CA), using the equation V=(Vmax·S)/(Km+S)+Kd·S where V represents the initial rate of uptake. Vmax is the maximum rate of uptake, Km is the apparent Michaelis constant, Kd is the rate of diffusion and S is the concentration of CPT-11 or SN-38.

HT29 cells [3] = experiment: Initial uptake rate of [14C]SN-38 by HT29 cells as a function of pH; format: in vitro ADME
Description: The uptake study was initiated by adding the compounds to Hanks' solution containing HT29 cells. The comparative initial rate of uptake as function of pH was analyzed by Kruskal-Wallis test (p<0.001) and Dunn's method (*p<0.05).
Uptake of ^14C-labeled CPT-11 and SN-38 was measured by rapid vacuum filtration assay (28, 29).

[4] = cited from earlier work
HT29 cells [5] = experiment: Cytotoxicity assay (MTT, mitochondrial dehydrogenase activity) in HT29 cells; format: cell-based; details: 0.4 μM SN-38; 24 h exposure, 24 h drug-free; pH 6.2, 6.8, 7.4, 8.0
Description: Rapid colorimetric assay for mitochondrial dehydrogenase activity was modified and used for the estimation of cytotoxicity of SN-38 (Mosmann, 1983). […] After 24 h-exposure, the cells were washed twice, and subjected to a drug-free incubation for 24 h. Then, the cells were incubated with 0.5 mg/ml 3-(4,5-dimethylthiazol-2-yl)-2,5-diphenyl-tetrazolium bromide (MTT) for 4 h, and the blue formazan crystals were solubilized by addition of 10% n-dodecylsulfate sodium salt (SDS) in 0.1N HCl and overnight incubation. The formation of the blue formazan compound is spectrophotometrically determined at 560 nm (Ultraspec 4050, LKB, Bromma, Sweden).

[6] = bile of two men treated by cisplatin who received CPT-11 intravenously; cited from earlier work
Solubility in water = format: physicochemical
[7] = rat; 24 h after IV injection of 14C-SN-38; cited from earlier work

Row | SMILES | effect of TCA on % monomer concentration / association to TCA micelles [1] | topoisomerase I-inhibitory activity (topoisomerase I) | transport mechanism in intestinal cells [2] | saturability of the uptake (predominant component) ([2]; jejunal and ileal cells, SN-38 concentrations lower than 2 μM) | initial rate of uptake in HT-29 cells compared with isolated hamster intestinal cells (HT29 cells [3]) | uptake rate in HT29 cells as a function of pH (HT29 cells [3]; 2 μM [14C]SN-38, pH 6.2, 6.8, 7.4, 8.0) | share in lactone form at pH 7.4 [4] | cytotoxicity for HT29 cells as a function of pH (HT29 cells [5]) | share of the biliary content [6] | solubility in water (Solubility in water) | initial uptake rate at acidic pH (pH 6.2 and 6.8) versus neutral or alkaline pH (pH 7.4 and 8) [2] | initial uptake rate in the presence of 20 mM TCA ([2]; cells from jejunum and ileum combined, 14C-CPT-11 20 μM, 14C-SN-38 2 μM, pH 7.4, mean±SD, n=5) | decrease of the uptake rate at a pH greater than 6.8 ([2]; pH 6.2) | uptake when HEPES of the Hank's buffer was replaced by sodium bicarbonate ([2]; pH adjusted to greater than 7) | distribution of radioactivity [7]
1 | CCc1c2c(nc3ccc(O)cc13)-c1cc([C@@](O)(CC)C(=O)O)c(CO)c(=O)n1C2 [SN-38 carboxylate] | did not significantly associate to TCA micelles | only minor | actively absorbed | mostly non-saturable |  |  |  |  |  |  |  |  |  |  | 
2 | CCc1c2c(nc3ccc(O)cc13)-c1cc3c(c(=O)n1C2)COC(=O)[C@]3(O)CC [SN-38, 7-ethyl-10-hydroxy-camptothecin] |  |  |  |  | lower in HT-29 cells than in isolated hamster intestinal cells | significantly greater at pH 6.2 and 6.8, than at pH 7.4 and 8.0 | 13% | significantly higher at pH 6.2 and 6.8 than at pH 7.4 and 8.0 | 0.9-3.3% | poorly soluble in water | several times greater | 69.3±12.7 % of control without TCA | around 65% | decreased | found exclusively in the gastrointestinal tract
